This note sets out measurements from article PMC11351612, “Heteronuclear Complexes with Promising Anticancer Activity against Colon Cancer” (Biomedicines, 2024).

Series [1] deals with Caco-2/TC7 cells. Put plainly: MTT cell proliferation assay, Caco-2/TC7. To be noted: 72 h, mean ± SE of at least three determinations. It is filed as cell-based, human. As for the experimental part: Cell culture. Human colon cancer Caco-2 cells (PD7 and TC7 clones) were kindly provided by Dr. Edith Brot-Laroche (Université Pierre et Marie Curie-Paris 6, UMR S 872, Les Cordeliers, Lyon, France) and grown in Dulbecco’s Modified Eagles medium (DMEM) (Gibco Invitrogen, Paisley, UK) supplemented with 20% foetal bovine serum (FBS), 1% non-essential amino acids, 1% streptomycin (1000 μg/mL), 1% penicillin (1000 μg/mL), and 1% amphotericin (250 U/mL). Caco-2 cells were maintained at 37 °C in a humidified atmosphere at 5% CO2.
Cell proliferation assay. Cell proliferation was measured using the 3-(4,5-dimethyl-2-thiazoyl)-2,5-diphenyltetrazolium bromide (MTT) assay, as previously described. Caco-2/TC7 cells were seeded in a 96-well plate at a density of 4000 cells/well and grown for 24 h before being treated with each complex or DMSO (used as control). After 72 h of incubation with the complexes, 10 μL of MTT (5 mg/mL) were added and incubation was continued at 37 °C for 3 h. Inversion removed the medium and 100 μL of DMSO were added to each well. Absorbance at 560 nm, proportional to many living cells, was measured by spectrophotometry (SPECTROstar Nano, BMG LABTECH, Ortenberg, Germany) and converted into a percentage (%) of growth inhibition.
The antiproliferative effects of the mononuclear and heteropolinuclear complexes were tested on two different Caco-2 cancer cell lines (PD7 and […]). […] Caco-2 cells of both PD7 and TC7 clones were exposed to increasing concentrations of the assayed compounds through dose–response/cell viability analysis. The results in terms of the IC50 parameter (Table 4) were obtained by using the MTT protocol.

Series [2] has as its system differentiated Caco-2/PD7 cells. In words: Cell viability of differentiated (enterocyte-like) Caco-2/PD7 cells. The conditions noted are these: for Cell viability of differentiated Caco-2 cells at 2 × IC50: differentiated Caco-2/PD7, concentration = 2 × IC50, 72 h. It is filed as cell-based, human. How it is done:
For cell viability studies of differentiated (enterocyte-like) cells, Caco-2/PD7 cells were seeded on 96-well plates at a density of 4 × 10^3 cells/well and incubated for approximately 10–15 days, changing the culture medium every 3 days, up to reaching confluence—the moment in which the cells were treated with the complexes at concentrations equal to their mean IC50 and 2 × IC50 values.
It is well known that the Caco-2 cell line undergoes spontaneous differentiation into enterocytic-like cells when it reaches confluency. As a result, these cells become polarised, expressing apical and basolateral surfaces with established tight junctions. This allowed for the evaluation of the cytotoxic impact of the complexes on differentiated cells (acting as noncarcinogenic) and a comparison with the viability of undifferentiated cells. Thus, the toxicity of the two heteronuclear compounds has been studied by cell viability experiments by treatment of Caco-2/PD7 cells after differentiation with complexes 1 and 2 at the corresponding concentrations equivalent to IC50 and 2 × IC50 values for 72 h. The results expressed as the % of cell viability observed after treatment with the complexes (or 100% for non-treated control cells) are summarised in Figure S16 (Supplementary Materials). […] However, the cell viability is around 90% even when the cells are treated with double the IC50 concentration.

Series [3] relates to Caco-2/TC7. Put plainly: Intracellular ROS generation (DCFH-DA). It is filed as cell-based, human. The conditions noted are these: IC50 concentration, monitored 3 h. As for the experimental part: Measurement of intracellular ROS generation. The production of ROS was measured in Caco-2/TC7 seeded at a 4000 cells/well concentration in a 96-well plate, as described above. After 24 h, the culture growth medium was removed and cells were washed with PBS 1× and incubated with 20 µM DCFH-DA (Sigma-Aldrich) (100 µL/well) at 37 °C for 45 min in the dark. Afterwards, cells were washed with PBS 1× and then incubated with the tested compounds at their IC50 concentration or with 500 µM of H2O2 for the positive control. The fluorescent emission of DCF was monitored at 530 nm right after the addition of the complexes for 3 h using a microplate reader (λex = 485 nm), measuring every 15 min. The temperature was maintained at 37 °C during the experiment.
It is important to study the effect caused by ROS production upon the treatment of cells with metallic complexes, as it could indicate TrxR (thioredoxin reductase) inhibition and induction of apoptosis. Thus, the production of hydrogen peroxide in Caco-2 cells upon treatment with IC50 concentrations of complexes 1 and 2 has been studied. The method based on the H2O2-sensitive fluorescent probe DCFH-DA (2′-7′dichlorofluorescin diacetate) has been used. […]

A short description of series [4]: Distribution coefficient (logP7.4), n-octanol-water shake-flask. It is filed as physicochemical. The conditions noted are these: n-octanol / buffered saline pH 7.4, shake-flask. As for the experimental part: Distribution coefficient (logP7.4). The n-octanol-water coefficients of the complexes were determined using a shake-flask method, as previously reported. Briefly, buffered-saline distilled water (100 mL, phosphate buffer [PO4^3−] = 10 mM, [NaCl] = 0.15 M, pH 7.4) and n-octanol (100 mL) were shaken together for 72 h to allow for saturation of both phases. Approximately 1 mg of the complexes was dissolved in 5 mL of the aqueous phase and 5 mL of the organic phase was added, mixing them for 10 min. The resulting emulsion was centrifuged to separate the phases. The concentration of the compounds in each phase was determined using UV-vis absorbance spectroscopy. The logP7.4 was defined as log{[compound(organic)]/[compound(aqueous)]}.

For [Cu{Au(Spy)(PTA)}2]PF6 [compound 1], the IC50 in series [1] came out at 130 ± 70 nM. Also, the “Cell viability of differentiated Caco-2 cells at 2 × IC50” value in series [2] is listed as “around 90%”. Also, in series [3], the “H2O2 / ROS formation (DCF fluorescence vs vehicle-treated cells)” value was “more markedly”. Moreover, the logP in series [4] was determined as 0.84.
In the case of [Zn{Au(PTA)(Spy)}2](NO3)2 [compound 2], the IC50 in series [1] amounted to 1940 ± 810 nM. Further, in series [2], the “Cell viability of differentiated Caco-2 cells at 2 × IC50” value turned out to be 87.66 ± 2.85%. Further, the “Cell viability of differentiated Caco-2 cells at IC50” value in series [2] (differentiated Caco-2/PD7, concentration = IC50, 72 h) is reported as 92.14 ± 4.22%. The lipophilicity (logP) in series [4] is 0.47.
